Entries after “also recorded” stand apart in the source; their conditions may differ. Read-outs that look alike come from different tables or passages of the source.
Key:
[1] = biological target: T1, BACE2 (Homo sapiens, UniProt Q9Y5Z0); assay: BACE2 purified enzyme fluorescence polarization assay; type: biochemical; conditions: purified human enzyme, fluorescence polarization
T1 construct: purchased R&D Systems 4097-AS
T1 sequence (Q9Y5Z0 63-518): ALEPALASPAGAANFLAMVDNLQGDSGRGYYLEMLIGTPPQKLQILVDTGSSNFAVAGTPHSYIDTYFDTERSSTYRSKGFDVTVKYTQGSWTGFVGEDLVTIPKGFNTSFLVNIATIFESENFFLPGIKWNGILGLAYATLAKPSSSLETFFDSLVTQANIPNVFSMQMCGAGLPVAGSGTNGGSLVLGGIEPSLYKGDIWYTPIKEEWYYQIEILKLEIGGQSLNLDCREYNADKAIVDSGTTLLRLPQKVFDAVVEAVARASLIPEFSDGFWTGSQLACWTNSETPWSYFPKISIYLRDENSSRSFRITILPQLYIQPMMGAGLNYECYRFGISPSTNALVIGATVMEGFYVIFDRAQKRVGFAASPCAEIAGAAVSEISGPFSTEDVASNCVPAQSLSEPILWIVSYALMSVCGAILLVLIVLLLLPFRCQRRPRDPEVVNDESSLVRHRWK
Outline: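 Purified enzymes incubated with compound (1% DMSO, 37 °C) and 150 nM biotinylated peptide substrate in 100 mM NaOAc pH 4.5. Reaction stopped with 1.5 μM streptavidin; inhibition read by fluorescence polarization. BACE2 0.5 nM, BACE1 substrate, 1 h; CatE 1.0 nM, CatD substrate, 1.5 h.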

[2] = pKa determination by multiplexed capillary electrophoresis; type: physicochemical; conditions: aqueous buffers
Procedure: All pKa values were determined at Analiza, Inc. by multiplexed capillary electrophoresis (mCE) using 96-capillary array electrophoresis instrument to measure the effective mobility (migration time of the compound in relation to neutral marker, DMSO) with ultraviolet detection. The pKa values were obtained from the ionization curves by plotting the compound effective mobility (24 points across pH range 1.7–11.2) versus pH. All pKa results were determined using aqueous buffers with method average absolute error 0.12.

[3] = biological target: CatD (Homo sapiens, UniProt P07339); assay: CatD purified enzyme fluorescence polarization assay; type: biochemical; set-up: final maturation into a non-covalently associated heavy chain and light chain; purchased Sigma C8696; host or cells: human liver; conditions: purified human enzyme, fluorescence polarization, substrate-based
[4] = test system: retinal pigment epithelium (RPE); assay: Exploratory toxicology, ocular toxicity by retinal histology in rats; type: in vivo; conditions: 14 days; for Female ocular toxicity incidence (positive or negative animals / total evaluated) / Female ocular toxicity outcome / Male ocular toxicity incidence (positive or negative animals / total evaluated) / Male ocular toxicity outcome: rat; for Retinal finding by fluorescence microscopy: rats
Procedure: (§1) Wistar Han rats (obtained from Charles River, 125–300 g, 6–9 weeks old at study start, see Supplementary Table 7 for number of males and females) received daily oral dosing of test compounds or vehicle at the indicated concentrations for 7–29 days as indicated. The doses were prepared in a solution of 0.5% methylcellulose and 0.2% polysorbate 80, or 0.5% methylcellulose and hydroxypropyl methylcellulose acetate succinate (high fine grade) and delivered in a volume of 10 ml kg^−1 per day. Blood samples for bioanalytical analysis were collected in K2EDTA tubes via jugular vessel. Plasma was isolated after centrifugation and stored at −20 °C prior to analysis. Animals were given an additional dose the day after the end of the study (days 8, 15 or 30 for 7, 14 and 29 day studies, respectively) then killed by gas anaesthesia (isoflurane) followed by exsanguination ∼3 h after this final dose.

[5] = Plasma exposure (average unbound plasma concentration) in rats; type: in vivo, rat; conditions: for Exposure: rat exploratory toxicology studies; for Avg Cp,u metabolite: active metabolite of the dosed compound
Procedure: as §1
Plasma samples were analysed after protein precipitation by treating 20 μl of sample matrix with 200 μl of acetonitrile containing internal standard. All samples were centrifuged at 3,000 r.p.m. for 5 min. Then 100 μl of supernatant was transferred to a clean plate and evaporated to dryness under N2. Samples were reconstituted in 200 μl of 80:20 (v:v) acetonitrile:water. Samples were analysed on Waters Acquity UPLC connected to AB Sciex API5500 QTrap MS/MS.
Plasma protein binding was determined in the Rapid Equilibrium Device (RED, Thermo Scientific). Frozen plasma was warmed to 37 °C and adjusted to pH 7.4. The plasma was spiked with compound to a final concentration of 2 μM. Aliquots of spiked plasma were added to the donor (red) side, followed by addition of buffer to the receiver (white) side. The RED device was covered with a gas-permeable membrane and agitated within a humidified CO2 incubator (5% CO2, 75% relative humidity). Plasma (15 μl) and buffer (45 μl) were sampled from each insert and were matrix-matched with appropriate blank matrix (plasma with 45 μl buffer and buffer with 15 μl of plasma). Samples were protein-precipitated with acetonitrile containing internal standard, and the resulting supernatant was analysed by LC-MS/MS.

CatD, sequence (P07339 65-162 limits assumed): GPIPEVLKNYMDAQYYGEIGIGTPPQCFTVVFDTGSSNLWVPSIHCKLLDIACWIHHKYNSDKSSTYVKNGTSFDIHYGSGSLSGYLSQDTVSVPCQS
CatD, sequence (P07339 169-412 limits assumed): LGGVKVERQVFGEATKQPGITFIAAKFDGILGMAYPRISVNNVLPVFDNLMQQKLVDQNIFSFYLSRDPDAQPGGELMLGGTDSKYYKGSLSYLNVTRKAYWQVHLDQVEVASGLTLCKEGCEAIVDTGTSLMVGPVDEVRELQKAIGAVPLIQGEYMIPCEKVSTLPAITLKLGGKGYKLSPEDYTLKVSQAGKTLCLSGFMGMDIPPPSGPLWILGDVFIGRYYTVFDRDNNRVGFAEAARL

**Q.** Which results are given for `Cc1cc([C@H]2C[C@H]3[C@@H](CF)SC(N)=N[C@@]3(c3ccc(F)cc3F)CO2)on1` [PF-3195]?
**A.** IC50 [1]: 0.15 µM; pKa [2]: 7.0; IC50 [3]: 9 µM; Female ocular toxicity incidence (positive or negative animals / total evaluated) ([4]; 15 mg kg-1 once daily): 3/3; Female ocular toxicity outcome ([4]; 15 mg kg-1 once daily): Neg (negative (neg) if there was no ocular abnormality observed); Male ocular toxicity incidence (positive or negative animals / total evaluated) ([4]; 15 mg kg-1 once daily): 3/3; Male ocular toxicity outcome ([4]; 15 mg kg-1 once daily): Neg (negative (neg) if there was no ocular abnormality observed); Female ocular toxicity incidence (positive or negative animals / total evaluated) ([4]; 40 mg kg-1 once daily): 3/3; Female ocular toxicity outcome ([4]; 40 mg kg-1 once daily): Neg (negative (neg) if there was no ocular abnormality observed); Male ocular toxicity incidence (positive or negative animals / total evaluated) ([4]; 40 mg kg-1 once daily): 3/3; Male ocular toxicity outcome ([4]; 40 mg kg-1 once daily): Neg (negative (neg) if there was no ocular abnormality observed); Female ocular toxicity incidence (positive or negative animals / total evaluated) ([4]; 90 mg kg-1 once daily): 2/3; Female ocular toxicity outcome ([4]; 90 mg kg-1 once daily): Pos; Male ocular toxicity incidence (positive or negative animals / total evaluated) ([4]; 90 mg kg-1 once daily): 1/3; Male ocular toxicity outcome ([4]; 90 mg kg-1 once daily): Pos; Female ocular toxicity incidence (positive or negative animals / total evaluated) ([4]; 200 mg kg-1 once daily): 2/3; Female ocular toxicity outcome ([4]; 200 mg kg-1 once daily): Pos; Male ocular toxicity incidence (positive or negative animals / total evaluated) ([4]; 200 mg kg-1 once daily): 3/3; Male ocular toxicity outcome ([4]; 200 mg kg-1 once daily): Pos; Retinal finding by fluorescence microscopy ([4]; 15 mg kg-1 or 40 mg kg-1 daily): no intermediate phenotype; Retinal finding by fluorescence microscopy ([4]; 90 mg kg-1 or 200 mg kg-1 daily): accumulated autofluorescent granules; Exposure [5]: unexpectedly low exposures; Avg Cp,u metabolite ([5]; rat, 14 days, 15 mg kg-1 once daily): 460 nM; concentration at 29 days ([5]; rat, 14 days, 15 mg kg-1 once daily, average unbound plasma concentration, read-out: Avg Cp,u parent): 5.4 nM; Avg Cp,u metabolite ([5]; rat, 14 days, 40 mg kg-1 once daily): 2570 nM; concentration at 29 days ([5]; rat, 14 days, 40 mg kg-1 once daily, average unbound plasma concentration, read-out: Avg Cp,u parent): 58 nM; Avg Cp,u metabolite ([5]; rat, 14 days, 90 mg kg-1 once daily): 6350 nM; concentration at 29 days ([5]; rat, 14 days, 90 mg kg-1 once daily, average unbound plasma concentration, read-out: Avg Cp,u parent): 232 nM; Avg Cp,u metabolite ([5]; rat, 14 days, 200 mg kg-1 once daily): 17300 nM; concentration at 29 days ([5]; rat, 14 days, 200 mg kg-1 once daily, average unbound plasma concentration, read-out: Avg Cp,u parent): 1790 nM

**Q.** Which IC50 [1] does the source give for `Cc1cc([C@H]2C[C@H]3[C@@H](C)SC(N)=N[C@@]3(c3ccc(F)cc3F)CO2)on1` [PF-9283] here?
**A.** 0.14 µM

**Q.** And the pKa [2]?
**A.** 7.7

**Q.** What about the IC50 [3] of the same compound?
**A.** 12 µM

**Q.** And the “Female ocular toxicity incidence (positive or negative animals / total evaluated)” value ([4]; 30 mg kg-1 once daily)?
**A.** 1/3

**Q.** And the “Female ocular toxicity outcome” value ([4]; 30 mg kg-1 once daily)?
**A.** Pos

**Q.** What about the “Male ocular toxicity incidence (positive or negative animals / total evaluated)” value ([4]; 30 mg kg-1 once daily) of the same compound?
**A.** 3/3

**Q.** And the “Male ocular toxicity outcome” value ([4]; 30 mg kg-1 once daily)?
**A.** Neg (negative (neg) if there was no ocular abnormality observed)

**Q.** What about the “Retinal finding by fluorescence microscopy” value ([4]; 80 mg kg-1 daily) of the same compound?
**A.** accumulation of autofluorescent granules (AFG) in the RPE; also recorded: accumulated autofluorescent granules are visible

**Q.** And the concentration at 14 days ([5]; Wistar Han, oral, rat, 14 days, 30 mg kg-1 once daily, average unbound plasma concentration, read-out: Avg Cp,u parent)?
**A.** 29 nM

**Q.** And the “Exposure” value [5]?
**A.** unexpectedly low exposures
